# Assay results reported in US10227323B2, “Glucosylceramide synthase inhibitors for the treatment of diseases” (BIOMARIN PHARMACEUTICAL INC., priority 2013, dated 2019).
# Target: T1, GCS (Canis lupus familiaris, UniProt A0A8I3MXG6)
# T1 sequence (A0A8I3MXG6 1-394): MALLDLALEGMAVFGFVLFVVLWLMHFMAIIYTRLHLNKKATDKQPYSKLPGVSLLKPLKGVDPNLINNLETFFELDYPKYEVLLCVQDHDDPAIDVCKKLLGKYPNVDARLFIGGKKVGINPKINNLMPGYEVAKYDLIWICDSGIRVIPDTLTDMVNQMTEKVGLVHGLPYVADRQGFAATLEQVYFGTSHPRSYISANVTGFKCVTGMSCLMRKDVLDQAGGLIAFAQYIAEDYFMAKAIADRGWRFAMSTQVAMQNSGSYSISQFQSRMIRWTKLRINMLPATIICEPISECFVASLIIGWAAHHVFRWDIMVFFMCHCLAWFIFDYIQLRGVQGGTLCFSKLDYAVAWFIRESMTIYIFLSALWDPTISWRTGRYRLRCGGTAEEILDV
# Experiment: Assay 1: GCS Enzymatic Assay (MDCK cell lysate, C6-NBD-Ceramide, LC/MS)
# Format: biochemical, canine
# Conditions: Table 1; MDCK cell lysate; read-out: IC50 (nM) generated from Assay 1
# Protocol: This assay was modified based on the study by Larsen et al. (J. Lipid Res. 2011, 53, 282). Madin-Darby canine kidney (MDCK) cell lysate was prepared using M-PER Mammalian Protein Extraction Reagent (Thermal Scientific) in the presence of a protease inhibitor cocktail (Roche). Protein concentration was determined using BCA assay kit (Pierce). Sixty micrograms of MDCK cell lysate was incubated with various concentrations of a compound described herein from 0.001 μM-10 μM, respectively, in 100 mM Tris buffer (pH 7.5) containing 10 mM MgCl2, 1 mM dithiothreitol, 1 mM EGTA, 2 mM NAD, 100 μM UDP-glucose, 10 μM C6-NBD-Ceramide (Matreya LLC, Pleasant Gap, Pa.), 35 μM dioleoylphosphatidylcholine and 5 μM sulfatide (Sigma) in a final reaction volume of 100 μL at 37° C. for 1 hour. 0.1% DMSO was used as mock treatment or control. The reaction was terminated by adding 100 μL acetonitrile solution and subjected to LC/MS analysis.
# The quantitative analysis of NBD-Ceramide and glucosylceramide was performed on a Shimadzu ultra-fast liquid chromatography (Shimadzu, Japan) coupled with API 4000 triple quadrupole mass spectrometer (Applied Biosystems, Concord, Ontario, Canada). Sample separation was conducted on a Waters Xbridge™ BEH130 C18, 100 mm×4.6 mm i.d, 3.5 μm (Milford, Mass., USA). The mobile phase consisted of water and acetonitrile supplemented with 0.1% formic acid (v/v). The flow rate was 1.0 mL/min. The initial mobile phase was 20% acetonitrile and was ramped in a linear fashion to 50% acetonitrile in 0.4 min. From 0.4 to 1.5 min, the gradient was ramped to 98% acetonitrile, and then was held at […] until 8.0 min. Acetonitrile was reset to 20% in 1.5 min, and maintained until 10.0 min. The total run time was 10.0 min. The MS/MS detection was performed in ESI positive mode. The mass transition of NBD-Ceramide was m/z 576.36→558.40 under the collision energy of 15 V, and the mass transition of glucosylceramide was m/z 738.35→558.40 under 21V collision energy. The cell lysate was diluted with equal volume of acetonitrile. Aliquots of 50 μL diluted samples were added to 1.5 mL tubes, and 100 μL of acetonitrile containing internal standard (100 ng/mL tolbutamide) were added for protein precipitation. The mixture were vortexed and then centrifuged at 13000 rpm for 10 min. 70 μL of supernatant were mixed with 140 μL of H2O and the final solution were injected for LC/MS/MS analysis and IC50's and/or percent inhibitions calculated.
row,SMILES,IC50 [nM]
1,"O=C(N[C@H](CN1CCCC1)[C@H](O)c1ccc(OC2CCOC2)c(Cl)c1)C(F)(F)c1cc2cc(Cl)ccc2o1 (single isomer, unassigned) [Compound 47]",< 50
2,"O=C(N[C@H](CN1CCCC1)[C@H](O)c1ccc2c(c1)OCCO2)C(F)(F)C1Cc2ccccc2C1 [Compound 1, 2-(2,3-dihydro-1H-inden-2-yl)-N-((1R,2R)-1-(2,3-dihydrobenzo[b][1,4]dioxin-6-yl)-1-hydroxy-3-(pyrrolidin-1-yl)propan-2-yl)-2,2-difluoroacetamide]",< 50
3,"O=C(N[C@H](CN1CCCC1)[C@H](O)c1ccc2c(c1)OCCO2)C(F)(F)c1ccc2c(c1)OCCO2 [Compound 2, 2-(2,3-dihydrobenzo[b][1,4]dioxin-6-yl)-N-((1R,2R)-1-(2,3-dihydrobenzo[b][1,4]dioxin-6-yl)-1-hydroxy-3-(pyrrolidin-1-yl)propan-2-yl)-2,2-difluoroacetamide]",50 to 5000
4,"O=C(N[C@H](CN1CCCC1)[C@H](O)c1ccc2c(c1)OCCO2)C(F)(F)c1cc2cc(Cl)ccc2s1 [Compound 3, 2-(5-chlorobenzo[b]thiophen-2-yl)-N-((1R,2R)-1-(2,3-dihydrobenzo[b][1,4]dioxin-6-yl)-1-hydroxy-3-(pyrrolidin-1-yl)propan-2-yl)-2,2-difluoroacetamide]",< 50
5,"COc1ccc([C@H](O)[C@@H](CN2CCCC2)NC(=O)C(F)(F)C2Cc3ccccc3C2)cc1F [Compound 5, 2-(2,3-dihydro-1H-inden-2-yl)-2,2-difluoro-N-((1S,2R)-1-(3-fluoro-4-methoxyphenyl)-1-hydroxy-3-(pyrrolidin-1-yl)propan-2-yl)acetamide]",< 50
6,"COc1ccc(C(O)[C@@H](CN2CCCC2)NC(=O)C(F)(F)C2Cc3ccccc3C2)cc1F (stereo partly drawn) [Compound 5A, 2-(2,3-dihydro-1H-inden-2-yl)-2,2-difluoro-N-((2R)-1-(3-fluoro-4-methoxyphenyl)-1-hydroxy-3-(pyrrolidin-1-yl)propan-2-yl)acetamide]",50 to 5000
7,"O=C(N[C@H](CN1CCCC1)[C@H](O)c1ccc2c(c1)OCCO2)C(F)(F)C1Cc2cc(Cl)c(Cl)cc2C1 [Compound 7, 2-(5,6-dichloro-2,3-dihydro-1H-inden-2-yl)-N-((1R,2R)-1-(2,3-dihydrobenzo[b][1,4]dioxin-6-yl)-1-hydroxy-3-(pyrrolidin-1-yl)propan-2-yl)-2,2-difluoroacetamide]",< 50

# Same assay, conditions: Table 1; values marked *; MDCK cell lysate
row,SMILES,% inhibition generated from Assay 1
1,"COc1ccc(C(O)[C@@H](CN2CCCC2)NC(=O)C(F)(F)c2cc3cc(Cl)ccc3s2)cc1F (stereo partly drawn) [Compound 4, 2-(5-chlorobenzo[b]thiophen-2-yl)-2,2-difluoro-N-((2R)-1-(3-fluoro-4-methoxyphenyl)-1-hydroxy-3-(pyrrolidin-1-yl)propan-2-yl)acetamide]",B* (the compound had a % inhibition of greater than or equal to about 3% but less than about 50%)
2,"COc1ccc([C@@H](O)[C@@H](CN2CCCC2)NC(=O)C(F)(F)C2Cc3ccccc3C2)cc1F [Compound 5B, 2-(2,3-dihydro-1H-inden-2-yl)-2,2-difluoro-N-((1R,2R)-1-(3-fluoro-4-methoxyphenyl)-1-hydroxy-3-(pyrrolidin-1-yl)propan-2-yl)acetamide]",B* (the compound had a % inhibition of greater than or equal to about 3% but less than about 50%)
3,"O=C(N[C@H](CN1CCCC1)[C@H](O)c1ccc2c(c1)OCCO2)C(F)(F)c1nc2cc(Cl)ccc2s1 [Compound 6, 2-(5-chlorobenzo[d]thiazol-2-yl)-N-((1R,2R)-1-(2,3-dihydrobenzo[b][1,4]dioxin-6-yl)-1-hydroxy-3-(pyrrolidin-1-yl)propan-2-yl)-2,2-difluoroacetamide]",B* (the compound had a % inhibition of greater than or equal to about 3% but less than about 50%)
4,"COc1ccc(F)c([C@@H](O)[C@@H](CN2CCCC2)NC(=O)C(F)(F)C2Cc3ccccc3C2)c1 [Compound 8, 2-(2,3-dihydro-1H-inden-2-yl)-2,2-difluoro-N-((1R,2R)-1-(2-fluoro-5-methoxyphenyl)-1-hydroxy-3-(pyrrolidin-1-yl)propan-2-yl)acetamide]",B* (the compound had a % inhibition of greater than or equal to about 3% but less than about 50%)
5,"COc1ccc(F)c([C@H](O)[C@@H](CN2CCCC2)NC(=O)C(F)(F)C2Cc3ccccc3C2)c1 [Compound 8J, 2-(2,3-dihydro-1H-inden-2-yl)-2,2-difluoro-N-((1S,2R)-1-(2-fluoro-5-methoxyphenyl)-1-hydroxy-3-(pyrrolidin-1-yl)propan-2-yl)acetamide]",B* (the compound had a % inhibition of greater than or equal to about 3% but less than about 50%)

# Same assay, conditions: Table 2; data marked by *
row,SMILES,% inhibition generated from Assay 1
1,"CC(C)Oc1cc(C(O)[C@@H](CN2CCCC2)NC(=O)C(F)(F)c2cc3cc(Cl)ccc3o2)ccn1 (stereo in doubt) [Compound 103, 2-(5-chlorobenzofuran-2-yl)-2,2-difluoro-N-((1S,2R)-1-hydroxy-1-(2-isopropoxypyridin-4-yl)-3-(pyrrolidin-1-yl)propan-2-yl)acetamide]",B* (the compound had a % inhibition of greater than or equal to about 3% but less than about 50%)
2,"O=C(N[C@H](CN1CCC1)C(O)c1cc(F)c2c(c1)OCCO2)C(F)(F)CCc1ccc2ccccc2c1 (stereo in doubt) [Compound 113, N-((1S,2R)-3-(azetidin-1-yl)-1-(8-fluoro-2,3-dihydrobenzo[b][1,4]dioxin-6-yl)-1-hydroxypropan-2-yl)-2,2-difluoro-4-(naphthalen-2-yl)butanamide]",B* (the compound had a % inhibition of greater than or equal to about 3% but less than about 50%)
3,"CC1(C)CCc2cc(C(O)[C@@H](CN3CCCC3)NC(=O)C(F)(F)CCc3ccc4ccccc4c3)ccc2O1 (stereo in doubt) [Compound 117, N-((1S,2R)-1-(2,2-dimethylchroman-6-yl)-1-hydroxy-3-(pyrrolidin-1-yl)propan-2-yl)-2,2-difluoro-4-(naphthalen-2-yl)butanamide]",B* (the compound had a % inhibition of greater than or equal to about 3% but less than about 50%)
4,"O=C(N[C@H](CN1CCCC1)C(O)c1ccc(N2CCOCC2)c(Cl)c1)C(F)(F)CCc1ccc2ccccc2c1 (stereo in doubt) [Compound 124, N-((1S,2R)-1-(3-chloro-4-morpholinophenyl)-1-hydroxy-3-(pyrrolidin-1-yl)propan-2-yl)-2,2-difluoro-4-(naphthalen-2-yl)butanamide]",B* (the compound had a % inhibition of greater than or equal to about 3% but less than about 50%)

# Same assay, conditions: Table 2; data without asterisk; read-out: IC50 (nM) generated from Assay 1
row,SMILES,IC50 [nM]
1,"CC(C)Oc1ccc(C(O)[C@@H](CN2CCCC2)NC(=O)C(F)(F)c2cc3cc(Cl)ccc3o2)cn1 (stereo in doubt) [Compound 80, 2-(5-chlorobenzofuran-2-yl)-2,2-difluoro-N-((1S,2R)-1-hydroxy-1-(6-isopropoxypyridin-3-yl)-3-(pyrrolidin-1-yl)propan-2-yl)acetamide]",50 to 5000
